{"source": "ChEMBL document CHEMBL5233272", "about": "“Nimbolide, a Neem Limonoid, Is a Promising Candidate for the Anticancer Drug Arsenal” (J Med Chem, 2021)", "key": {"[1]": {"experiment": "Acute toxicity in iv dosed Swiss albino mouse assessed as lethal dose", "format": "organism-based", "details": "in vivo"}, "[2]": {"experiment": "Oral bioavailability in Sprague-Dawley rat at 50 mg/kg measured upto 72 hrs", "format": "ADME, organism-based", "details": "in vivo"}, "[3]": {"experiment": "Drug concentration in athymic Nu/Nu mouse tumor xenografted with human HCT-116 cells transfected with luciferase at 5 mg/kg, ip administered daily for 10 days by HPLC analysis", "format": "ADME, organism-based, Neoplasm", "details": "time 10 day, read-out: Drug uptake"}, "[4]": {"experiment": "Drug concentration in athymic Nu/Nu mouse tumor xenografted with human HCT-116 cells transfected with luciferase at 20 mg/kg, ip administered daily for 10 days by HPLC analysis", "format": "ADME, organism-based, Neoplasm", "details": "time 10 day, read-out: Drug uptake"}, "[5]": {"experiment": "Drug concentration in athymic Nu/Nu mouse plasma xenografted with human HCT-116 cells transfected with luciferase at 20 mg/kg, ip administered daily for 10 days by HPLC analysis", "format": "ADME, organism-based", "details": "time 10 day, read-out: Drug uptake"}, "[6]": {"experiment": "Acute toxicity in ip dosed Syrian golden hamster assessed as lethal dose", "format": "organism-based, Mesocricetus auratus", "details": "in vivo"}, "[7]": {"experiment": "Acute toxicity in ip dosed Swiss albino mouse assessed as lethal dose", "format": "organism-based", "details": "in vivo"}, "[8]": {"experiment": "Oral bioavailability in Sprague-Dawley rat at 10 mg/kg measured upto 72 hrs", "format": "ADME, organism-based", "details": "in vivo"}, "[9]": {"experiment": "Drug concentration in athymic Nu/Nu mouse plasma xenografted with human HCT-116 cells transfected with luciferase at 5 mg/kg, ip administered daily for 10 days by HPLC analysis", "format": "ADME, organism-based", "details": "time 10 day, read-out: Drug uptake"}, "[10]": {"experiment": "Oral bioavailability in Sprague-Dawley rat at 30 mg/kg measured upto 72 hrs", "format": "ADME, organism-based", "details": "in vivo"}, "[11]": {"experiment": "Cmax in mouse at 3 mg/kg, po measured after 2 hrs by LC-MS/MS analysis", "format": "ADME, organism-based", "set-up": "dose 3 mg/kg, time 2 hrs, route po", "details": "in vivo"}, "[12]": {"experiment": "Acute toxicity in ip dosed rat assessed as lethal dose", "format": "organism-based", "details": "in vivo"}}}
{"compound": "COC(=O)C[C@H]1[C@]2(C)C3=C(C)[C@H](c4ccoc4)C[C@H]3O[C@@H]2[C@@H]2OC(=O)[C@]3(C)C=CC(=O)[C@@]1(C)[C@@H]23", "note": "[NIMBOLIDE]", "values": [{"measurement": "LD50", "setting": "[1]", "result": 24, "unit": "mg/kg"}, {"measurement": "bioavailability", "setting": "[2]", "result": 3.06, "unit": "%"}, {"measurement": "concentration at 240 h", "setting": "[3]", "result": 345, "unit": "ng/g"}, {"measurement": "concentration at 240 h", "setting": "[4]", "result": 868, "unit": "ng/g"}, {"measurement": "concentration at 240 h", "setting": "[5]", "result": 409, "unit": "ng/mL"}, {"measurement": "LD50", "setting": "[6]", "result": 500, "unit": "mg/kg"}, {"measurement": "LD50", "setting": "[7]", "result": 225, "unit": "mg/kg"}, {"measurement": "bioavailability", "setting": "[8]", "result": 2.72, "unit": "%"}, {"measurement": "concentration at 240 h", "setting": "[9]", "result": 222, "unit": "ng/mL"}, {"measurement": "bioavailability", "setting": "[10]", "result": 1.76, "unit": "%"}, {"measurement": "Cmax", "setting": "[11]", "result": 780, "unit": "nM"}, {"measurement": "LD50", "setting": "[12]", "result": 600, "unit": "mg/kg"}]}
